Measured values as given in patent EP0292291B1, “Linear and cyclic analogs of alpha-msh fragments with extraordinary potency” (UNIVERSITY PATENTS, INC., priority 1987, dated 1988).
Where two headings read alike, the source gives them in different places. Non-standard residues stand in square brackets, D forms with d. Residues, ends and D or L forms follow the SMILES beside them. Nle = CCCC[C@H](N)C(=O)O

Legend:
[1] = system: Frog (Rana pipiens) Skin; format: cell-based; conditions: for Biological Potency Frog: relative to alpha-MSH = 1.0
Excerpt: (§1) Based upon the structural relationship of alpha-MSH (and its analogues and fragments) to its biological potency, using in vitro a frog skin bioassay system, the active site of alpha-MSH appears to be the common active core sequence suitably modified Ac-Met-Glu-His-Phe-Arg-Trp-Gly-NH₂. This fragment (Alpha-MSH₄₋₁₀) has been synthesized and tested for its melanocyte stimulating activity in frog skin and shown to be a weak agonist when compared to the native hormone. The amino acid exchanges in position 5(Glu) and 10(Gly) have not, previous to the making of the present invention, been investigated. […] The following table summarizes some of these studies.
(§2) The biological potencies of alpha-MSH, the linear, and the cyclic analogues were determined by their ability to stimulate melanosome dispersion in vitro in the frog and lizard bioassays. These in vitro assays provide clear cut dose response curves (between 2.5 x 10⁻¹¹ and 4 x 10⁻¹⁰ M) and can detect minimal concentration of alpha-MSH of about 10⁻¹¹ M. The assays are based upon the centrifugal dispersion of melanosomes (melanin granules) within the dendritic processes of integumental dermal melanophores leading to darkening of the skin. All the test solutions were prepared via serial dilutions from a stock solution (10⁻⁴ M). The frogs (Rans pipiens) used in these evaluations were obtained from Kons Scientific, Germantown, WI, and the lizards (Anolis carolinensis) were from the Snake Farm, La Place, LA.

[2] = system: Lizard (Anolis carolinensis) Skin; format: cell-based; conditions: for Biological Potency Lizard: relative to alpha-MSH = 1.0
Excerpt: as §1, §2

[3] = linear analogues, P = prolonged action
[4] = cyclic analogues, p = prolonged action

| Structure (SMILES) | Residual Activity Frog [1, 3] | Biological Potency Frog ([1]; linear analogues) | Residual Activity Lizard [2, 3] | Biological Potency Lizard ([2]; linear analogues) | Residual Activity Frog [1, 4] | Biological Potency Frog ([1]; cyclic analogues) | Residual Activity Lizard [2, 4] | Biological Potency Lizard ([2]; cyclic analogues) |
| --- | --- | --- | --- | --- | --- | --- | --- | --- |
| CCCC[C@H](NC(=O)[C@H](CO)NC(=O)[C@H](Cc1ccc(O)cc1)NC(=O)[C@H](CO)NC(C)=O)C(=O)N[C@@H](CCC(=O)O)C(=O)N[C@@H](Cc1c[nH]cn1)C(=O)N[C@H](Cc1ccccc1)C(=O)N[C@@H](CCCNC(=N)N)C(=O)N[C@@H](Cc1c[nH]c2ccccc12)C(=O)N[C@@H](CCCCN)C(=O)NCC(=O)N1CCC[C@H]1C(=O)N[C@H](C(N)=O)C(C)C [Analogue 1] (Ac-SYS[Nle]EH[dF]RWKGPV-NH2) | P(+) | 6.0 | P(-) | 8.0 | – | – | – | – |
| CCCC[C@H](NC(C)=O)C(=O)N[C@H]1CC(=O)NCCC[C@@H](C(N)=O)NC(=O)[C@H](Cc2c[nH]c3ccccc23)NC(=O)[C@H](CCCNC(=N)N)NC(=O)[C@@H](Cc2ccccc2)NC(=O)[C@H](Cc2c[nH]cn2)NC1=O [Analogue 18] | – | – | – | – | p(-) | 1.0 | p(-) | 20.0 |
| CCCC[C@H](NC(C)=O)C(=O)N[C@@H](CCC(=O)O)C(=O)N[C@@H](Cc1c[nH]cn1)C(=O)N[C@H](Cc1ccccc1)C(=O)N[C@@H](CCCNC(=N)N)C(=O)N[C@@H](Cc1c[nH]c2ccccc12)C(=O)N[C@@H](CCCCN)C(N)=O [Analogue 6] | P(-) | 0.2 | P(-) | 8.0 | – | – | – | – |
| CCCC[C@H](NC(C)=O)C(=O)N[C@H]1CC(=O)NCC[C@@H](C(N)=O)NC(=O)[C@H](Cc2c[nH]c3ccccc23)NC(=O)[C@H](CCCNC(=N)N)NC(=O)[C@@H](Cc2ccccc2)NC(=O)[C@H](Cc2c[nH]cn2)NC1=O [Analogue 19] | – | – | – | – | p(-) | 1.0 | p(-) | 5.0 |
| CCCC[C@H](NC(C)=O)C(=O)N[C@@H](CCC(=O)O)C(=O)N[C@@H](Cc1c[nH]cn1)C(=O)N[C@H](Cc1ccccc1)C(=O)N[C@@H](CCCNC(=N)N)C(=O)N[C@@H](Cc1c[nH]c2ccccc12)C(=O)N[C@@H](CCCCN)C(=O)NCC(=O)N1CCC[C@H]1C(=O)N[C@H](C(N)=O)C(C)C [Analogue 3] (Ac-[Nle]EH[dF]RWKGPV-NH2) | P(+) | 0.8 | P(+) | 8.0 | – | – | – | – |
| CCCC[C@H](NC(C)=O)C(=O)N[C@@H](CCC(=O)O)C(=O)N[C@@H](Cc1c[nH]cn1)C(=O)N[C@H](Cc1ccccc1)C(=O)N[C@@H](CCCNC(=N)N)C(=O)N[C@@H](Cc1c[nH]c2ccccc12)C(=O)N[C@@H](CCCN)C(N)=O [Analogue 8] | P(-) | 0.6 | P(-) | 8.0 | – | – | – | – |
| CCCC[C@H](NC(C)=O)C(=O)N[C@@H](CC(=O)O)C(=O)N[C@@H](Cc1c[nH]cn1)C(=O)N[C@H](Cc1ccccc1)C(=O)N[C@@H](CCCNC(=N)N)C(=O)N[C@@H](Cc1c[nH]c2ccccc12)C(=O)NCC(N)=O [Analogue 5] | P(-) | 0.1 | P(-) | 8.0 | – | – | – | – |
| CCCC[C@H](NC(C)=O)C(=O)N[C@@H](CC(=O)O)C(=O)N[C@@H](Cc1c[nH]cn1)C(=O)N[C@H](Cc1ccccc1)C(=O)N[C@@H](CCCNC(=N)N)C(=O)N[C@@H](Cc1c[nH]c2ccccc12)C(=O)N[C@@H](CCCCN)C(N)=O [Analogue 7] | – | – | P(-) | 8.0 | – | – | – | – |
| CCCC[C@H](NC(C)=O)C(=O)N[C@@H](CC(=O)O)C(=O)N[C@@H](Cc1c[nH]cn1)C(=O)N[C@@H](Cc1ccccc1)C(=O)N[C@@H](CCCNC(=N)N)C(=O)N[C@@H](Cc1c[nH]c2ccccc12)C(=O)N[C@@H](CCCCN)C(N)=O [Analogue 14] | – | – | P(-) | 0.08 | – | – | – | – |
